Data reported in the supplement of paper PMC5908809.

Experiments:
[1] = tested on: YT (IL-2 2.5 ng/mL); assay: drug sensitivity score (DSS) (DSS units); higher = more sensitive; extreme values may be limits of the assay; details: 72 h
[2] = tested on: normal primary NK cells, pool 1 (3 donors) (IL-2 2.5 ng/mL); assay: as above; details: 72 h
[3] = tested on: DERL-7 (IL-2 2.5 ng/mL); assay: as above; details: 72 h
[4] = tested on: normal primary NK cells, pool 3 (3 donors) (IL-2 2.5 ng/mL); assay: as above; details: 72 h
[5] = tested on: IMC-1 (IL-2 20 ng/mL); assay: as above; details: 72 h
[6] = tested on: normal primary NK cells, pool 2 (3 donors) (IL-2 2.5 ng/mL); assay: as above; details: 72 h
[7] = tested on: KAI3 (IL-2 2.5 ng/mL); assay: as above; details: 72 h
[8] = tested on: NK-92 (IL-2 2.5 ng/mL); assay: as above; details: 72 h
[9] = tested on: NKL (IL-2 2.5 ng/mL); assay: as above; details: 72 h
[10] = tested on: normal primary NK cells, pool 1 (3 donors), resting (IL-2 0 ng/mL); assay: as above; details: 72 h
[11] = tested on: SNK-6 (IL-2 2.5 ng/mL); assay: as above; details: 72 h
[12] = tested on: KHYG-1 (IL-2 2.5 ng/mL); assay: as above; details: 72 h
[13] = tested on: NK-YS (IL-2 2.5 ng/mL); assay: as above; details: 72 h
[14] = tested on: YT (IL-2 2.5 ng/mL); assay: percent inhibition of viability; higher = more inhibition; details: 72 h
[15] = tested on: normal primary NK cells, pool 1 (3 donors) (IL-2 2.5 ng/mL); assay: as above; details: 72 h
[16] = tested on: DERL-7 (IL-2 2.5 ng/mL); assay: as above; details: 72 h
[17] = tested on: normal primary NK cells, pool 3 (3 donors) (IL-2 2.5 ng/mL); assay: as above; details: 72 h
[18] = tested on: IMC-1 (IL-2 20 ng/mL); assay: as above; details: 72 h
[19] = tested on: normal primary NK cells, pool 2 (3 donors) (IL-2 2.5 ng/mL); assay: as above; details: 72 h
[20] = tested on: KAI3 (IL-2 2.5 ng/mL); assay: as above; details: 72 h
[21] = tested on: NK-92 (IL-2 2.5 ng/mL); assay: as above; details: 72 h
[22] = tested on: NKL (IL-2 2.5 ng/mL); assay: as above; details: 72 h
[23] = tested on: normal primary NK cells, pool 1 (3 donors), resting (IL-2 0 ng/mL); assay: as above; details: 72 h
[24] = tested on: SNK-6 (IL-2 2.5 ng/mL); assay: as above; details: 72 h
[25] = tested on: KHYG-1 (IL-2 2.5 ng/mL); assay: as above; details: 72 h
[26] = tested on: NK-YS (IL-2 2.5 ng/mL); assay: as above; details: 72 h
[27] = tested on: normal NK cells expanded with K562-aAPC; assay: as above; details: 72 h, IL-2 2.5 ng/mL
Protocol: (§1)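 Drug sensitivity and resistance testing on K562-aAPC-expanded normal NK cells: 5 concentrations (10-fold steps over a 10,000-fold range), 72 h at 37 °C, viability by CellTiter-Glo normalised to DMSO and benzethonium chloride controls; DSS from the fitted curve.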

[28] = tested on: normal NK cells expanded with K562-aAPC; assay: drug sensitivity score (DSS) (DSS units); higher = more sensitive; extreme values may be limits of the assay; details: 72 h; IL-2 2.5 ng/mL
Protocol: as §1

COCC(=O)NC/C=C/c1ccc2ncnc(Nc3ccc(Oc4ccc(C)nc4)c(C)c3)c2c1 (max concentration tested 10000 nM)
Details	drug sensitivity score
[1]	4.08
[2]	0.09
[3]	2.95
[4]	0.05
[5]	3.25
[6]	2.13
[7]	5.41
[8]	7.15
[9]	4.55
[10]	6.9
[11]	3.37
[12]	1.16
[13]	1.75
[28]	0

percent inhibition of viability [%]
Details	1 nM	10 nM	100 nM	1000 nM	10000 nM
[14]	3.6	-0.32	0.57	9.46	48.2
[15]	-12	-6.34	-1.36	-3.88	14.2
[16]	-3.08	-0.4	-4.63	9.9	33
[17]	-5.66	4.44	4.87	10.9	5.97
[18]	-0.96	-1.82	-0.25	1.87	55.9
[19]	1.3	6.76	-0.67	11.9	23.1
[20]	16.4	7.76	7.06	11.1	64.8
[21]	1.59	8.37	6.53	22.8	75
[22]	1.03	-1.8	0.69	8.06	58.8
[23]	14.9	9.42	15.7	21.2	61
[24]	-0.22	-18.4	-12.7	-1.13	63.7
[25]	-2.05	-5.21	-2.56	-1.27	29.4
[26]	-0.22	0.49	1.46	4.98	25.6
[27]	-7.95	-1.69	-8	-3.66	3.1

CC(C)(C)c1cc(NC(=O)Nc2ccc(-c3cn4c(n3)sc3cc(OCCN5CCOCC5)ccc34)cc2)no1 [Quizartinib] (max concentration tested 1000 nM)
Details	drug sensitivity score
[1]	2.36
[2]	0
[3]	2.22
[4]	0.01
[5]	0
[6]	0
[7]	6.21
[8]	2.69
[9]	3.06
[10]	0
[11]	0.72
[12]	4.98
[13]	2.8
[28]	0.13

percent inhibition of viability [%]
Details	0.1 nM	1 nM	10 nM	100 nM	1000 nM
[14]	-3.18	-4.77	-2.32	8.06	28.5
[15]	-1.34	14.2	4.45	6.54	7.43
[16]	4.27	4.47	0.07	4.17	33.4
[17]	-1.63	14.8	1.27	-1.92	11.7
[18]	-3.97	-4.91	-0.67	-2.42	-27
[19]	-4.07	3.45	0.79	8.48	5.08
[20]	0.8	-2.84	2.67	15.2	68.6
[21]	4.94	6.77	3.37	9.08	32.8
[22]	-4.32	-4.59	-3.22	6.3	40.2
[23]	6.94	18.5	11.5	15.2	11.1
[24]	19.5	-15.2	-9.07	-27.8	31.3
[25]	-4.77	-6.69	-1.59	7.07	69.5
[26]	-4.56	-6.94	-2.6	3.09	45.4
[27]	-5.93	-6.07	-5.11	1.78	12

CN(C)CCOc1ccc(/C(=C(/CCCl)c2ccccc2)c2ccccc2)cc1 [Toremifene] (max concentration tested 10000 nM)
Details	drug sensitivity score
[1]	2.42
[2]	2.96
[3]	5.52
[4]	1.64
[5]	0.01
[6]	3.11
[7]	4.76
[8]	3.98
[9]	2.74
[10]	5.83
[11]	6.85
[12]	3.24
[13]	0.96
[28]	0.54

percent inhibition of viability [%]
Details	1 nM	10 nM	100 nM	1000 nM	10000 nM
[14]	-5.23	2.7	-3.67	5.54	33
[15]	-5.3	-17.6	-3	-8.46	64.3
[16]	1.82	1.64	5.42	24.2	53.5
[17]	-2.58	-5.78	0.52	5.83	23.4
[18]	-0.16	2.16	-3.63	1.2	10.6
[19]	-4.96	-0.07	-1.79	3.55	49
[20]	8.55	1.95	5.19	8.64	60.7
[21]	-4.85	-1.12	2.18	6.43	54.2
[22]	7.08	8.77	-8.23	8.2	32.7
[23]	-10.2	-1.02	4.14	7.87	82.2
[24]	13	30.5	-2.4	28.2	29
[25]	-7.33	4.52	-9.46	6.72	42
[26]	1.32	-4.28	-2.7	-0.4	25.6
[27]	-7.54	-7.98	-6.66	-5.37	22.4

CNC(=O)c1cc(Oc2ccc(NC(=O)Nc3ccc(Cl)c(C(F)(F)F)c3)c(F)c2)ccn1 [Regorafenib] (max concentration tested 10000 nM)
Details	drug sensitivity score
[1]	8.99
[2]	4.63
[3]	7.66
[4]	3.62
[5]	3.09
[6]	5.3
[7]	4.49
[8]	9.31
[9]	6.61
[10]	6.48
[11]	13.9
[12]	6.71
[13]	6.12
[28]	0.41

percent inhibition of viability [%]
Details	1 nM	10 nM	100 nM	1000 nM	10000 nM
[14]	2	0.08	3.65	21.9	100
[15]	-13.1	1.52	-11	1.66	79.7
[16]	2.39	2.44	-0.06	27.7	70.5
[17]	-11.7	-13.3	-6.26	6.56	48.1
[18]	-4.09	-5.72	3.85	6.77	39.6
[19]	-10.1	-16.9	-7.59	12.1	61
[20]	-0.04	-3.7	-6.12	-2.83	85.1
[21]	0.49	12.1	12	37.9	85.7
[22]	-7.68	-18.9	-10.6	17.4	70.8
[23]	6.64	8.24	-7.13	12.5	79.3
[24]	9.61	17.5	36.1	38.7	63.7
[25]	-1.86	-1.02	1.17	11.2	87.3
[26]	-1	-1.21	3.83	15.4	67
[27]	3.1	-1.28	-0.64	-2.22	19.1

Clc1ccc(C(c2ccccc2Cl)C(Cl)Cl)cc1 (stereo not given) [Mitotane] (max concentration tested 10000 nM)
Details	drug sensitivity score
[1]	0
[2]	0
[3]	0
[4]	0
[5]	0
[6]	0
[7]	0
[8]	0
[9]	0
[10]	0
[11]	0
[12]	0
[13]	0
[28]	0

percent inhibition of viability [%]
Details	1 nM	10 nM	100 nM	1000 nM	10000 nM
[14]	-5.71	-7.2	-6.08	-5.64	-3.1
[15]	-4.65	-4.88	5.61	-1.23	-0.57
[16]	-3.98	-2.6	-1.88	-5.27	1.52
[17]	-8.66	-9.61	-7	-8.07	0.73
[18]	-4	-2.56	-9	-5.63	-8.85
[19]	-6.28	-4.83	-5.23	-1.37	-4.6
[20]	-6.14	-3.83	-3.7	-6.65	-4.73
[21]	-11.9	-11.6	-10.9	-14.2	-13.7
[22]	-23.5	-31.7	-25.8	-21.9	-16.6
[23]	-7.77	-15.2	11.9	-9.1	7.07
[24]	11.9	12.4	-5.92	-1.09	-8.81
[25]	-5.54	-6.16	-6.75	-7.76	-6.11
[26]	-3.11	-4.91	-8.11	-1.41	-4.03
[27]	-3.47	-5.5	-2.42	-6.05	-4.65
